From ChEMBL document CHEMBL3217532, “New analyses of MIC90 data to aid antibacterial drug discovery” (2011)

Columns and labels:
Type in all cases: functional
Pseudomonas aeruginosa [1] = assay: Antimicrobial activity against Pseudomonas aeruginosa 1615-09
Pseudomonas aeruginosa [2] = assay: Antimicrobial activity against Pseudomonas aeruginosa 1952-00
Pseudomonas aeruginosa [3] = assay: Antimicrobial activity against Pseudomonas aeruginosa 1527-08
Pseudomonas aeruginosa [4] = assay: Antimicrobial activity against Pseudomonas aeruginosa 1563-00
Pseudomonas aeruginosa [5] = assay: Antimicrobial activity against Pseudomonas aeruginosa 1765-00
Pseudomonas aeruginosa [6] = assay: Antimicrobial activity against Pseudomonas aeruginosa 1760-00
Pseudomonas aeruginosa [7] = assay: Antimicrobial activity against Pseudomonas aeruginosa 1955-00
Pseudomonas aeruginosa [8] = assay: Antimicrobial activity against Pseudomonas aeruginosa 1561-05
Pseudomonas aeruginosa [9] = assay: Antimicrobial activity against Pseudomonas aeruginosa 1568-05
Pseudomonas aeruginosa [10] = assay: Antimicrobial activity against Pseudomonas aeruginosa PA-4624
Pseudomonas aeruginosa [11] = assay: Antimicrobial activity against Pseudomonas aeruginosa 1514-08
Pseudomonas aeruginosa [12] = assay: Antimicrobial activity against Pseudomonas aeruginosa 1562-05
Pseudomonas aeruginosa [13] = assay: Antimicrobial activity against Pseudomonas aeruginosa PA-75
Pseudomonas aeruginosa [14] = assay: Antimicrobial activity against Pseudomonas aeruginosa 1566-05
Pseudomonas aeruginosa [15] = assay: Antimicrobial activity against Pseudomonas aeruginosa 1753-00
Pseudomonas aeruginosa [16] = assay: Antimicrobial activity against Pseudomonas aeruginosa PA-1757
Pseudomonas aeruginosa [17] = assay: Antimicrobial activity against Pseudomonas aeruginosa 1510-08
Pseudomonas aeruginosa [18] = assay: Antimicrobial activity against Pseudomonas aeruginosa PA-4991
Pseudomonas aeruginosa [19] = assay: Antimicrobial activity against Pseudomonas aeruginosa 1613-09
Pseudomonas aeruginosa [20] = assay: Antimicrobial activity against Pseudomonas aeruginosa PA-4997
Pseudomonas aeruginosa [21] = assay: Antimicrobial activity against Pseudomonas aeruginosa PA-4993
Pseudomonas aeruginosa [22] = assay: Antimicrobial activity against Pseudomonas aeruginosa 1612-09
Pseudomonas aeruginosa [23] = assay: Antimicrobial activity against Pseudomonas aeruginosa 1509-08
Pseudomonas aeruginosa [24] = assay: Antimicrobial activity against Pseudomonas aeruginosa 1611-09
Pseudomonas aeruginosa [25] = assay: Antimicrobial activity against Pseudomonas aeruginosa 1515-08
Pseudomonas aeruginosa [26] = assay: Antimicrobial activity against Pseudomonas aeruginosa PA-4990
Pseudomonas aeruginosa [27] = assay: Antimicrobial activity against Pseudomonas aeruginosa 1956-00
Pseudomonas aeruginosa [28] = assay: Antimicrobial activity against Pseudomonas aeruginosa 1951-00
Pseudomonas aeruginosa [29] = assay: Antimicrobial activity against Pseudomonas aeruginosa 1957-00
Pseudomonas aeruginosa [30] = assay: Antimicrobial activity against Pseudomonas aeruginosa 1521-08
Pseudomonas aeruginosa [31] = assay: Antimicrobial activity against Pseudomonas aeruginosa 1512-08
Pseudomonas aeruginosa [32] = assay: Antimicrobial activity against Pseudomonas aeruginosa 1570-05
Pseudomonas aeruginosa [33] = assay: Antimicrobial activity against Pseudomonas aeruginosa 1619-08
Pseudomonas aeruginosa [34] = assay: Antimicrobial activity against Pseudomonas aeruginosa 1513-08
Pseudomonas aeruginosa [35] = assay: Antimicrobial activity against Pseudomonas aeruginosa 1954-00
Pseudomonas aeruginosa [36] = assay: Antimicrobial activity against Pseudomonas aeruginosa 1767-00
Pseudomonas aeruginosa [37] = assay: Antimicrobial activity against Pseudomonas aeruginosa 1953-00
Pseudomonas aeruginosa [38] = assay: Antimicrobial activity against Pseudomonas aeruginosa 1567-05
Pseudomonas aeruginosa [39] = assay: Antimicrobial activity against Pseudomonas aeruginosa 1768-00
Pseudomonas aeruginosa [40] = assay: Antimicrobial activity against Pseudomonas aeruginosa 1614-09
Pseudomonas aeruginosa [41] = assay: Antimicrobial activity against Pseudomonas aeruginosa 1569-05
Pseudomonas aeruginosa [42] = assay: Antimicrobial activity against Pseudomonas aeruginosa 1761-00
Pseudomonas aeruginosa [43] = assay: Antimicrobial activity against Pseudomonas aeruginosa PA-4995
Pseudomonas aeruginosa [44] = assay: Antimicrobial activity against Pseudomonas aeruginosa 1752-00
Pseudomonas aeruginosa [45] = assay: Antimicrobial activity against Pseudomonas aeruginosa 1523-08
Pseudomonas aeruginosa [46] = assay: Antimicrobial activity against Pseudomonas aeruginosa 1764-00
Pseudomonas aeruginosa [47] = assay: Antimicrobial activity against Pseudomonas aeruginosa 1564-05
Pseudomonas aeruginosa [48] = assay: Antimicrobial activity against Pseudomonas aeruginosa 1766-00
Pseudomonas aeruginosa [49] = assay: Antimicrobial activity against Pseudomonas aeruginosa 1565-05
Pseudomonas aeruginosa [50] = assay: Antimicrobial activity against Pseudomonas aeruginosa PA-4999
Pseudomonas aeruginosa [51] = assay: Antimicrobial activity against Pseudomonas aeruginosa 1526-08

Measured: MIC90

C[C@@H](O)[C@H]1C(=O)N2C(C(=O)O)=C(S[C@@H]3CN[C@H](C(=O)N(C)C)C3)[C@H](C)[C@H]12 [MEROPENEM]
32 µg/mL: Pseudomonas aeruginosa [25] | Pseudomonas aeruginosa [26] | Pseudomonas aeruginosa [34]
8 µg/mL: Pseudomonas aeruginosa [3] | Pseudomonas aeruginosa [18] | Pseudomonas aeruginosa [50]
0.125 µg/mL: Pseudomonas aeruginosa [15] | Pseudomonas aeruginosa [29] | Pseudomonas aeruginosa [44]
0.25 µg/mL: Pseudomonas aeruginosa [10] | Pseudomonas aeruginosa [19] | Pseudomonas aeruginosa [32] | Pseudomonas aeruginosa [35] | Pseudomonas aeruginosa [41]
> 64 µg/mL: Pseudomonas aeruginosa [11] | Pseudomonas aeruginosa [17] | Pseudomonas aeruginosa [21] | Pseudomonas aeruginosa [23] | Pseudomonas aeruginosa [30] | Pseudomonas aeruginosa [31] | Pseudomonas aeruginosa [51]
16 µg/mL: Pseudomonas aeruginosa [22] | Pseudomonas aeruginosa [43]
64 µg/mL: Pseudomonas aeruginosa [20] | Pseudomonas aeruginosa [45]
0.06 µg/mL: Pseudomonas aeruginosa [28]
1 µg/mL: Pseudomonas aeruginosa [7]
4 µg/mL: Pseudomonas aeruginosa [6] | Pseudomonas aeruginosa [12] | Pseudomonas aeruginosa [16] | Pseudomonas aeruginosa [24] | Pseudomonas aeruginosa [33] | Pseudomonas aeruginosa [40]
0.5 µg/mL: Pseudomonas aeruginosa [9] | Pseudomonas aeruginosa [13] | Pseudomonas aeruginosa [14] | Pseudomonas aeruginosa [27] | Pseudomonas aeruginosa [36] | Pseudomonas aeruginosa [38] | Pseudomonas aeruginosa [39] | Pseudomonas aeruginosa [49]
2 µg/mL: all other assays above
